± gives the expanded uncertainty stated by the source.
Test: xn = mol fraction of the nth substance listed
Details: Liquid, Vibrating tube method

Question: What does the source list for `CCCCCCCCCC` [decane] + CCCCCC?
Answer: mass density (323.14 K, 13000 kPa, x2 = 0.2185): 707.88 ± 0.34 kg/m3; mass density (323.14 K, 13000 kPa, x2 = 0.4968): 691.97 ± 0.36 kg/m3; mass density (323.14 K, 14000 kPa, x2 = 0.0456): 717.02 ± 0.34 kg/m3; mass density (323.14 K, 14000 kPa, x2 = 0.2185): 708.71 ± 0.35 kg/m3; mass density (323.14 K, 14000 kPa, x2 = 0.4968): 692.85 ± 0.36 kg/m3; mass density (323.14 K, 15000 kPa, x2 = 0.0456): 717.82 ± 0.35 kg/m3; mass density (323.14 K, 15000 kPa, x2 = 0.2185): 709.54 ± 0.36 kg/m3; mass density (323.14 K, 15000 kPa, x2 = 0.4968): 693.71 ± 0.37 kg/m3; mass density (323.14 K, 16000 kPa, x2 = 0.0456): 718.6 ± 0.36 kg/m3; mass density (323.14 K, 16000 kPa, x2 = 0.2185): 710.33 ± 0.37 kg/m3; mass density (323.14 K, 16000 kPa, x2 = 0.4968): 694.57 ± 0.38 kg/m3; mass density (323.14 K, 17000 kPa, x2 = 0.0456): 719.38 ± 0.37 kg/m3; mass density (323.14 K, 17000 kPa, x2 = 0.2185): 711.14 ± 0.37 kg/m3; mass density (323.14 K, 17000 kPa, x2 = 0.4968): 695.4 ± 0.39 kg/m3; mass density (323.14 K, 18000 kPa, x2 = 0.0456): 720.14 ± 0.37 kg/m3; mass density (323.14 K, 18000 kPa, x2 = 0.2185): 711.93 ± 0.38 kg/m3; mass density (323.14 K, 18000 kPa, x2 = 0.4968): 696.25 ± 0.4 kg/m3; mass density (323.14 K, 19000 kPa, x2 = 0.0456): 720.9 ± 0.38 kg/m3; mass density (323.14 K, 19000 kPa, x2 = 0.2185): 712.7 ± 0.39 kg/m3; mass density (323.14 K, 19000 kPa, x2 = 0.4968): 697.05 ± 0.41 kg/m3; mass density (323.14 K, 20000 kPa, x2 = 0.0456): 721.64 ± 0.39 kg/m3; mass density (323.14 K, 20000 kPa, x2 = 0.2185): 713.47 ± 0.4 kg/m3; mass density (323.14 K, 20000 kPa, x2 = 0.4968): 697.87 ± 0.42 kg/m3; mass density (323.14 K, 21000 kPa, x2 = 0.0456): 722.37 ± 0.4 kg/m3; mass density (323.14 K, 21000 kPa, x2 = 0.2185): 714.23 ± 0.41 kg/m3; mass density (323.14 K, 21000 kPa, x2 = 0.4968): 698.66 ± 0.42 kg/m3; mass density (323.14 K, 22000 kPa, x2 = 0.0456): 723.1 ± 0.4 kg/m3; mass density (323.14 K, 22000 kPa, x2 = 0.2185): 714.97 ± 0.41 kg/m3; mass density (323.14 K, 22000 kPa, x2 = 0.4968): 699.42 ± 0.43 kg/m3; mass density (323.14 K, 23000 kPa, x2 = 0.0456): 723.81 ± 0.41 kg/m3; mass density (323.14 K, 23000 kPa, x2 = 0.2185): 715.7 ± 0.42 kg/m3; mass density (323.14 K, 23000 kPa, x2 = 0.4968): 700.17 ± 0.44 kg/m3; mass density (323.14 K, 24000 kPa, x2 = 0.0456): 724.52 ± 0.42 kg/m3; mass density (323.14 K, 24000 kPa, x2 = 0.2185): 716.43 ± 0.43 kg/m3; mass density (323.14 K, 24000 kPa, x2 = 0.4968): 700.91 ± 0.45 kg/m3; mass density (323.14 K, 25000 kPa, x2 = 0.0456): 725.21 ± 0.43 kg/m3; mass density (323.14 K, 25000 kPa, x2 = 0.2185): 717.13 ± 0.44 kg/m3; mass density (323.14 K, 25000 kPa, x2 = 0.4968): 701.65 ± 0.46 kg/m3; mass density (323.16 K, 1000 kPa, x2 = 0.7524): 659.51 ± 0.27 kg/m3; mass density (323.16 K, 2000 kPa, x2 = 0.7524): 660.73 ± 0.28 kg/m3; mass density (323.16 K, 3000 kPa, x2 = 0.7524): 661.92 ± 0.29 kg/m3; mass density (323.16 K, 4000 kPa, x2 = 0.7524): 663.04 ± 0.29 kg/m3; mass density (323.16 K, 5000 kPa, x2 = 0.7524): 664.17 ± 0.3 kg/m3; mass density (323.16 K, 6000 kPa, x2 = 0.7524): 665.29 ± 0.31 kg/m3; mass density (323.16 K, 7000 kPa, x2 = 0.7524): 666.38 ± 0.32 kg/m3; mass density (323.16 K, 8000 kPa, x2 = 0.7524): 667.43 ± 0.33 kg/m3; mass density (323.16 K, 9000 kPa, x2 = 0.7524): 668.5 ± 0.34 kg/m3; mass density (323.16 K, 10000 kPa, x2 = 0.7524): 669.53 ± 0.34 kg/m3; mass density (323.16 K, 10990 kPa, x2 = 0.7524): 670.57 ± 0.35 kg/m3; mass density (323.16 K, 12000 kPa, x2 = 0.7524): 671.56 ± 0.36 kg/m3; mass density (323.16 K, 13000 kPa, x2 = 0.7524): 672.52 ± 0.37 kg/m3; mass density (323.16 K, 14000 kPa, x2 = 0.7524): 673.49 ± 0.38 kg/m3; mass density (323.16 K, 15000 kPa, x2 = 0.7524): 674.44 ± 0.39 kg/m3; mass density (323.16 K, 16000 kPa, x2 = 0.7524): 675.39 ± 0.4 kg/m3; mass density (323.16 K, 17000 kPa, x2 = 0.7524): 676.32 ± 0.41 kg/m3; mass density (323.16 K, 18000 kPa, x2 = 0.7524): 677.22 ± 0.42 kg/m3; mass density (323.16 K, 19000 kPa, x2 = 0.7524): 678.11 ± 0.43 kg/m3; mass density (323.16 K, 20000 kPa, x2 = 0.7524): 678.99 ± 0.44 kg/m3; mass density (323.16 K, 21000 kPa, x2 = 0.7524): 679.85 ± 0.44 kg/m3; mass density (323.16 K, 22000 kPa, x2 = 0.7524): 680.67 ± 0.45 kg/m3; mass density (323.16 K, 23000 kPa, x2 = 0.7524): 681.51 ± 0.46 kg/m3; mass density (323.16 K, 24000 kPa, x2 = 0.7524): 682.33 ± 0.47 kg/m3; mass density (323.16 K, 25000 kPa, x2 = 0.7524): 683.11 ± 0.48 kg/m3; mass density (332.58 K, 1000 kPa, x2 = 0.4968): 671.98 ± 0.27 kg/m3; mass density (332.58 K, 2000 kPa, x2 = 0.4968): 673.11 ± 0.27 kg/m3; mass density (332.58 K, 3000 kPa, x2 = 0.4968): 674.24 ± 0.28 kg/m3; mass density (332.58 K, 4000 kPa, x2 = 0.4968): 675.37 ± 0.29 kg/m3; mass density (332.58 K, 5000 kPa, x2 = 0.4968): 676.46 ± 0.29 kg/m3; mass density (332.58 K, 6000 kPa, x2 = 0.4968): 677.53 ± 0.3 kg/m3; mass density (332.58 K, 7000 kPa, x2 = 0.4968): 678.61 ± 0.31 kg/m3; mass density (332.58 K, 8000 kPa, x2 = 0.4968): 679.66 ± 0.32 kg/m3; mass density (332.58 K, 9000 kPa, x2 = 0.4968): 680.68 ± 0.33 kg/m3; mass density (332.58 K, 10000 kPa, x2 = 0.4968): 681.7 ± 0.34 kg/m3; mass density (332.58 K, 10990 kPa, x2 = 0.4968): 682.69 ± 0.34 kg/m3; mass density (332.58 K, 12000 kPa, x2 = 0.4968): 683.66 ± 0.35 kg/m3; mass density (332.58 K, 13000 kPa, x2 = 0.4968): 684.64 ± 0.36 kg/m3; mass density (332.58 K, 14000 kPa, x2 = 0.4968): 685.59 ± 0.37 kg/m3; mass density (332.58 K, 15000 kPa, x2 = 0.4968): 686.54 ± 0.38 kg/m3; mass density (332.58 K, 16000 kPa, x2 = 0.4968): 687.44 ± 0.39 kg/m3; mass density (332.58 K, 17000 kPa, x2 = 0.4968): 688.35 ± 0.4 kg/m3; mass density (332.58 K, 18000 kPa, x2 = 0.4968): 689.24 ± 0.4 kg/m3; mass density (332.58 K, 19000 kPa, x2 = 0.4968): 690.12 ± 0.41 kg/m3; mass density (332.58 K, 20000 kPa, x2 = 0.4968): 690.99 ± 0.42 kg/m3; mass density (332.58 K, 21000 kPa, x2 = 0.4968): 691.85 ± 0.43 kg/m3; mass density (332.58 K, 22000 kPa, x2 = 0.4968): 692.69 ± 0.44 kg/m3; mass density (332.58 K, 23000 kPa, x2 = 0.4968): 693.52 ± 0.45 kg/m3; mass density (332.58 K, 24000 kPa, x2 = 0.4968): 694.34 ± 0.46 kg/m3; mass density (332.58 K, 25000 kPa, x2 = 0.4968): 695.13 ± 0.47 kg/m3; mass density (332.93 K, 1000 kPa, x2 = 0.8991): 636.12 ± 0.28 kg/m3; mass density (332.93 K, 2000 kPa, x2 = 0.8991): 637.35 ± 0.29 kg/m3; mass density (332.93 K, 3000 kPa, x2 = 0.8991): 638.61 ± 0.29 kg/m3; mass density (332.93 K, 4000 kPa, x2 = 0.8991): 639.84 ± 0.3 kg/m3; mass density (332.93 K, 5000 kPa, x2 = 0.8991): 641.09 ± 0.31 kg/m3; mass density (332.93 K, 6000 kPa, x2 = 0.8991): 642.3 ± 0.32 kg/m3
